In patent publication US9302999B2, “Substituted triazoles as herbicides” (E. I. DU PONT DE NEMOURS AND COMPANY, priority 2012, dated 2016):

How the values were obtained:
Format in all cases: in vivo
[1] = system: crabgrass, Brazil (Brazilian crabgrass, Digitaria horizontalis); experiment: Test F pre-/postemergence: crabgrass, Brazil
In short: (§1)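 0–100 visual control scores, taken 14–21 d after application in the greenhouse. Preemergence treatment was made to silt loam soil at sowing. Postemergence sprays hit 1- to 4-leaf plants (2–18 cm) in peat/vermiculite mix. Surfactant-containing non-phytotoxic solvent served as the vehicle.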

[2] = system: cocklebur (common cocklebur, Xanthium strumarium); experiment: Test F pre-/postemergence: cocklebur; conditions: Preemergence
In short: as §1

[3] = system: morningglory (Ipomoea coccinea); experiment: Test F pre-/postemergence: morningglory; conditions: Preemergence
In short: as §1

kochia (Kochia scoparia) = experiment: Test F pre-/postemergence: kochia; conditions: Preemergence
Description: Seeds of plant species selected from corn (Zea mays), soybean (Glycine max), velvetleaf (Abutilon theophrasti), lambsquarters (Chenopodium album), poinsettia, wild (wild poinsettia, Euphorbia heterophylla), pigweed, palmer (palmer pigweed, Amaranthus palmeri), waterhemp (common waterhemp, Amaranthus rudis), surinam grass (Brachiaria decumbens), crabgrass, Brazil (Brazilian crabgrass, Digitaria horizontalis), panicum, fall (fall panicum Panicum dichotomiflorum), crabgrass, large (large crabgrass, Digitaria sanguinalis), foxtail, giant (giant foxtail, Setaria faberii), foxtail, green (green foxtail Setaria viridis), goosegrass (Eleusine indica), ragweed (common ragweed, Ambrosia elatior), barnyardgrass (Echinochloa crus-galli), sandbur (southern sandbur, Cenchrus echinatus), arrowleaf sida (Sida rhombifolia), ryegrass, Italian (Italian ryegrass, Lolium multiflorum), dayflower, VA (Virginia (VA) dayflower, Commelina virginica), field bindweed (Convolvulus arvensis), cocklebur (common cocklebur, Xanthium strumarium), morningglory (Ipomoea coccinea), nightshade (eastern black nightshade, Solanum ptycanthum), kochia (Kochia scoparia), nutsedge, yellow (yellow nutsedge, Cyperus esculentus), johnsongrass (Sorghum halepense), smartweed (ladysthumb smartweed, Polygonum persicaria), and beggarticks (hairy beggarticks, Bidens pilosa), were planted into a silt loam soil and treated preemergence with test chemicals formulated in a non-phytotoxic solvent mixture which included a surfactant. At the same time, plants selected from these crop and weed species and also pigweed (Amaranthus retroflexus), waterhemp_RES1 (ALS/Triazine resistant common waterhemp, Amaranthus rudis) and waterhemp_RES2 (ALS/HPPD resistant common waterhemp, Amaranthus rudis) were planted in pots containing a planting medium comprising spaghnum peat moss, vermiculite, wetting agent and starter nutrients treated with postemergence applications of some of the test chemicals formulated in the same manner. Plants ranged in height from 2 to 18 cm for postemergence treatments (1- to 4-leaf stage).
Treated plants and controls were maintained in a greenhouse for 14 to 21 days, after which time all species were compared to controls and visually evaluated. Plant response ratings, summarized in Table E, are based on a scale of 0 to 100 where 0 is no effect and 100 is complete control. A dash (-) response means no test result.

[4] = Postemergence, 250 g ai/ha, scale 0 to 100
[5] = Postemergence, 31 g ai/ha, scale 0 to 100
[6] = Postemergence, 125 g ai/ha, scale 0 to 100
[7] = Preemergence, 16 g ai/ha, scale 0 to 100, 0 no effect, 100 complete control
[8] = Preemergence, 31 g ai/ha, scale 0 to 100, 0 no effect, 100 complete control
[9] = Preemergence, 62 g ai/ha, scale 0 to 100
[10] = Preemergence, 125 g ai/ha, scale 0 to 100
[11] = Preemergence, 250 g ai/ha, scale 0 to 100
[12] = 16 g ai/ha, scale 0 to 100, 0 no effect, 100 complete control
[13] = 31 g ai/ha, scale 0 to 100, 0 no effect, 100 complete control

SMILES	Plant response rating, Crabgrass, Brazil [1, 4]	Plant response rating, Crabgrass, Brazil [1, 5]	Plant response rating, Crabgrass, Brazil [1, 6]	Plant response rating, Crabgrass, Brazil [1, 7]	Plant response rating, Crabgrass, Brazil [1, 8]	Plant response rating, Crabgrass, Brazil [1, 9]	Plant response rating, Crabgrass, Brazil [1, 10]	Plant response rating, Crabgrass, Brazil [1, 11]	Plant response rating, Cocklebur [2, 12]	Plant response rating, Cocklebur [2, 13]	Plant response rating, Cocklebur ([2]; 62 g ai/ha, scale 0 to 100)	Plant response rating, Morningglory [3, 12]	Plant response rating, Morningglory [3, 13]	Plant response rating, Morningglory ([3]; 125 g ai/ha, scale 0 to 100)	Plant response rating, Morningglory ([3]; 250 g ai/ha, scale 0 to 100)	Plant response rating, Kochia (kochia (Kochia scoparia); [12])	Plant response rating, Kochia (kochia (Kochia scoparia); [13])	Plant response rating, Kochia (kochia (Kochia scoparia); 62 g ai/ha, scale 0 to 100)	Plant response rating, Kochia (kochia (Kochia scoparia); 125 g ai/ha, scale 0 to 100)	Plant response rating, Kochia (kochia (Kochia scoparia); 250 g ai/ha, scale 0 to 100)	further results
CCc1nn(-c2ccc(C(F)(F)F)cc2)nc1Oc1ccnc(C(F)(F)F)c1 [Compound 169]	30	20	20	100	100	100	100	100	0	0	0	0	0	40	40	0	95	95	98	98	Plant response rating, Crabgrass, Brazil ([1]; Postemergence, 16 g ai/ha, scale 0 to 100): 20; Plant response rating, Crabgrass, Brazil ([1]; Postemergence, 62 g ai/ha, scale 0 to 100): 20
CCc1nn(-c2ccc(F)c(F)c2)nc1Oc1ccnc(C(F)(F)F)c1 [Compound 171]				0	98	100	100	100	0	0	0	0	0	35	65	0	0	5	15	98	
CCCc1nn(-c2ccc(F)c(F)c2)nc1Oc1ccnc(C(F)(F)F)c1 [Compound 172]	90	50	70		100		100	100					0	5	5		20		100	100	Plant response rating, Cocklebur ([2]; 250 g ai/ha, scale 0 to 100): 5
